Laboratory results: US9084420B2, “Amide derivative, pest control agent containing the amide derivative, and pest controlling method” (Mitsui Chemicals Agro, Inc., priority 2008, dated 2015)
Structures can show the parent of a compound that is named as a salt.

Columns and labels:
[1] = system: Spodoptera litura; assay: Pesticidal test against Spodoptera litura (cabbage leaf immersion); format: in vivo; details: 144 h, 2-stage larvae on treated cabbage leaf, 25° C., after 6 days, read-out: pesticidal rate
Method: (§1) Pesticidal Test Against Spodoptera litura A piece of a cabbage leaf was immersed for 30 seconds in a chemical solution in which a test compound had been diluted at a predetermined concentration, and air-dried, and then put into a 7 cm polyethylene cup having a filter paper laid on the bottom thereof, and 2-stage larvae of Spodoptera litura were released. They were left to stand in a thermostatic chamber at 25° C., and the numbers of the living pests and the dead pests were examined after 6 days. The test was carried out with five larvae per group in two replicates.

[2] = system: Plutella xylostella; assay: Pesticidal test against Plutella xylostella (cabbage leaf immersion); format: in vivo; details: 144 h, 3-stage larvae on treated cabbage leaf, 25° C., after 6 days, read-out: pesticidal rate
Method: as §1, with “Plutella xylostella” for “Spodoptera litura”, “3-stage” for “2-stage”

Structure (SMILES)	pest or weed control at 100 ppm [1]	pest or weed control at 100 ppm [2]
Cc1cc(C(F)(C(F)(F)F)C(F)(F)F)cc(C)c1NC(=O)c1cccc(N(CCC(N)=O)C(=O)c2ccccc2)c1 [1-1, N-(3-amino-3-oxopropyl)-N-(3-(2,6-dimethyl-4-(perfluoropropan-2-yl)phenylcarbamoyl)phenyl)benzamide]	≥ 70%	≥ 70%
COC(=O)CCN(C(=O)c1ccccc1)c1cccc(C(=O)Nc2c(C)cc(C(F)(C(F)(F)F)C(F)(F)F)cc2C)c1 [5-1, methyl 3-(N-(3-(2,6-dimethyl-4-(perfluoropropan-2-yl)phenylcarbamoyl)phenyl)benzamide)propanoate]	≥ 70%	≥ 70%
Cc1cc(C(F)(C(F)(F)F)C(F)(F)F)cc(C)c1NC(=O)c1cccc(N(CCC(=O)O)C(=O)c2ccccc2)c1 [5-4, 3-(N-(3-(2,6-dimethyl-4-(perfluoropropan-2-yl)phenylcarbamoyl)phenyl)benzamide)propanoic acid]		≥ 70%
Cc1cc(C(F)(C(F)(F)F)C(F)(F)F)cc(C)c1NC(=O)c1cccc(N(CCC(=O)NCCCC(NC(=O)OC(C)(C)C)C(=O)OC(C)(C)C)C(=O)c2ccccc2)c1 (stereo not drawn) [5-15, tert-butyl 2-(3-(2,6-dimethyl-4-(perfluoropropan-2-yl)phenylcarbamoyl)phenyl)-14,14-dimethyl-1,5,12-trioxo-1-phenyl-13-oxa-2,6,11-triazapentadecane-10-carboxylate]	≥ 70%	≥ 70%
Cc1cc(C(F)(C(F)(F)F)C(F)(F)F)cc(C)c1NC(=O)c1cccc(N(CCC(=O)OCC(NC(=O)OC(C)(C)C)C(=O)OC(C)(C)C)C(=O)c2ccccc2)c1 (stereo not drawn) [5-22, tert-butyl 2-(tert-butoxycarbonylamino)-3-(3-(N-(3-(2,6-dimethyl-4-(perfluoropropan-2-yl)phenylcarbamoyl)phenyl)benzamide)propanoyloxy)propanoate]	≥ 70%	≥ 70%
Cc1cc(C(F)(C(F)(F)F)C(F)(F)F)cc(C)c1NC(=O)c1cccc(N(CCC(=O)OCC(N)C(=O)O)C(=O)c2ccccc2)c1 (stereo not drawn) [5-25, 2-amino-3-(3-(N-(3-(2,6-dimethyl-4-(perfluoropropan-2-yl)phenylcarbamoyl)phenyl)benzamide)propanoyloxy)propanoic acid hydrochloric acid salt]	≥ 70%	≥ 70%
N#Cc1ccc(C(=O)N(CCC(=O)NCC(N)=O)c2cccc(C(=O)Nc3c(Br)cc(C(F)(C(F)(F)F)C(F)(F)F)cc3Br)c2F)cc1 [5-31, 3-(N-(3-(2-amino-2-oxoethylamino)-3-oxopropyl)-4-cyanobenzamide)-N-(2,6-dibromo-4-(perfluoropropan-2-yl)phenyl)-2-fluorobenzamide]	≥ 70%	≥ 70%
Cc1cc(C(F)(C(F)(F)F)C(F)(F)F)cc(C)c1N(C)C(=O)c1cccc(N(CCO)C(=O)c2ccccc2)c1 [5-35, N-(2,6-dimethyl-4-(perfluoropropan-2-yl)phenyl)-3-(N-(2-hydroxyethyl)benzamide)-N-methylbenzamide]	≥ 70%	≥ 70%
CSCCN(C(=O)c1ccccc1)c1cccc(C(=O)N(C)c2c(C)cc(C(F)(C(F)(F)F)C(F)(F)F)cc2C)c1 [5-71, N-(2,6-dimethyl-4-(perfluoropropan-2-yl)phenyl)-N-methyl-3-(N-(2-(methylthio)ethyl)benzamide)benzamide]	≥ 70%	≥ 70%
Cc1cc(C(F)(C(F)(F)F)C(F)(F)F)cc(C)c1N(C)C(=O)c1cccc(N(CC[S+](C)[O-])C(=O)c2ccccc2)c1 (stereo not drawn) [5-72, N-(2,6-dimethyl-4-(perfluoropropan-2-yl)phenyl)-N-methyl-3-(N-(2-(methylsulfinyl)ethyl)benzamide)benzamide]	≥ 70%	≥ 70%
Cc1cc(C(F)(C(F)(F)F)C(F)(F)F)cc(C)c1N(C)C(=O)c1cccc(N(CCS(C)(=O)=O)C(=O)c2ccccc2)c1 [5-73, N-(2,6-dimethyl-4-(perfluoropropan-2-yl)phenyl)-N-methyl-3-(N-(2-(methylsulfonyl)ethyl)benzamide)benzamide]	≥ 70%	≥ 70%
Cc1cc(C(F)(C(F)(F)F)C(F)(F)F)cc(C)c1NC(=O)c1cccc(N(CCC(=O)NN)C(=O)c2ccc(C#N)cc2)c1F [5-83, 3-(4-cyano-N-(3-hydrazinyl-3-oxopropyl)benzamide)-N-(2,6-dimethyl-4-(perfluoropropan-2-yl)phenyl)-2-fluorobenzamide]	≥ 70%	≥ 70%
O=C(O)CCN(C(=O)c1ccccc1)c1cccc(C(=O)Nc2c(I)cc(C(F)(C(F)(F)F)C(F)(F)F)cc2C(F)(F)F)c1 [5-88, 3-(N-(3-(2-iodo-4-(perfluoropropan-2-yl)-6-(trifluoromethyl)phenylcarbamoyl)phenyl)benzamide)propanoic acid]	≥ 70%	≥ 70%
Cc1cc(C(F)(C(F)(F)F)C(F)(F)F)cc(C)c1NC(=O)c1cccc(N(CC/C(N)=N/O)C(=O)c2ccccc2)c1 [5-91, N-(3-amino-3-(hydroxyimino)propyl)-N-(3-(2,6-dimethyl-4-(perfluoropropan-2-yl)phenylcarbamoyl)phenyl)benzamide]	≥ 70%	≥ 70%
COC(=O)CCCN(C(=O)c1ccccc1)c1cccc(C(=O)N(C)c2c(C)cc(C(F)(C(F)(F)F)C(F)(F)F)cc2C)c1 [6-13, methyl 4-(N-(3-((2,6-dimethyl-4-(perfluoropropan-2-yl)phenyl)(methyl)carbamoyl)phenyl)benzamide)butanoate]		≥ 70%
Cc1cc(C(F)(C(F)(F)F)C(F)(F)F)cc(C)c1NC(=O)c1cccc(N(CCCN/C(N)=N/[N+](=O)[O-])C(=O)c2ccccc2)c1 [6-61, N-(3-(2,6-dimethyl-4-(perfluoropropan-2-yl)phenylcarbamoyl)phenyl)-N-(3-(2-nitroguanidino)propyl)benzamide]	≥ 70%	
COC(=O)CCN(C(=O)c1cccc(NC(=O)c2ccccc2)c1)c1c(C)cc(C(F)(C(F)(F)F)C(F)(F)F)cc1C [7-6, methyl 3-(3-benzamide-N-(2,6-dimethyl-4-(perfluoropropan-2-yl)phenyl)benzamide)propanoate]		≥ 70%
Cc1cc(C(F)(C(F)(F)F)C(F)(F)F)cc(C)c1N(CCO)C(=O)c1cccc(N(C)C(=O)c2ccccc2)c1F [7-23, N-(2,6-dimethyl-4-(perfluoropropan-2-yl)phenyl)-2-fluoro-N-(2-hydroxyethyl)-3-(N-methylbenzamide)benzamide]		≥ 70%
CS(=O)(=O)CCN(C(=O)c1cccc(NC(=O)c2ccccc2)c1F)c1c(Br)cc(C(F)(C(F)(F)F)C(F)(F)F)cc1Br [7-169, 3-benzamide-N-(2,6-dibromo-4-(perfluoropropan-2-yl)phenyl)-2-fluoro-N-(2-(methylsulfonyl)ethyl)benzamide]		≥ 70%
Cc1cc(C(F)(C(F)(F)F)C(F)(F)F)cc(C)c1N(CC(=O)O)C(=O)c1cccc(N(CC(=O)O)C(=O)c2ccccc2)c1F [8-13, 2-(N-(3((carboxymethyl)(2,6-dimethyl-4-(perfluoropropan-2-yl)phenyl)carbamoyl)-2-fluorophenyl)benzamide)acetic acid]		≥ 70%
